From paper PMC11345841, “Exploring 2-Sulfonylpyrimidine Warheads as Acrylamide Surrogates for Targeted Covalent Inhibition: A BTK Story” (Journal of Medicinal Chemistry, 2024)
Like-named read-outs stand apart in the source and are kept apart here.

Tests used:
Assay in all cases: KINOMEscan ScanTK
Assay type in all cases: binding
TEC = molecular target: T1, TEC (Homo sapiens, UniProt P42680)
T1 construct: purchased Eurofins DiscoverX KINOMEscan (scanTK)
T1 sequence (P42680 1-631): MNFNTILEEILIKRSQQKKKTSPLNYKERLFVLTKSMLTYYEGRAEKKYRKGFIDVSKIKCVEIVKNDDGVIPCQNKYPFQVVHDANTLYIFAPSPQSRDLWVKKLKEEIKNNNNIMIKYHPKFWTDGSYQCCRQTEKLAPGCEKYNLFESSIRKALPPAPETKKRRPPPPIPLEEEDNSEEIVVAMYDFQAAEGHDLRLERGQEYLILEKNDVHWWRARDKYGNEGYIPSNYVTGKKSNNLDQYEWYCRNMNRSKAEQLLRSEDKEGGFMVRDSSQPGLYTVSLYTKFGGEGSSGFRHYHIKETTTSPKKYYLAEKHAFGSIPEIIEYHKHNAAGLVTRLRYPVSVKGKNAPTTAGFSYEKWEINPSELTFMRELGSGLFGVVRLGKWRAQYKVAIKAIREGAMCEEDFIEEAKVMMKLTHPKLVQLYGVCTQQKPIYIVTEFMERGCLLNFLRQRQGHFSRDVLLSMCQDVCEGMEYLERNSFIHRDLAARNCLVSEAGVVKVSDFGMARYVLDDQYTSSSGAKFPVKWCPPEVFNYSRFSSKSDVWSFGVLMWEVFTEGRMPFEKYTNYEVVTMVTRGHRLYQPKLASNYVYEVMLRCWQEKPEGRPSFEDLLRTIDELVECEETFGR

ROS1 = molecular target: T2, ROS1 (Homo sapiens, UniProt P08922); conditions: for %Control difference versus reference Ib at 1 µM: read-out: % difference (compound - Ib %Control)
T2 construct: purchased Eurofins DiscoverX KINOMEscan (scanTK)
T2 sequence (P08922 28-2347): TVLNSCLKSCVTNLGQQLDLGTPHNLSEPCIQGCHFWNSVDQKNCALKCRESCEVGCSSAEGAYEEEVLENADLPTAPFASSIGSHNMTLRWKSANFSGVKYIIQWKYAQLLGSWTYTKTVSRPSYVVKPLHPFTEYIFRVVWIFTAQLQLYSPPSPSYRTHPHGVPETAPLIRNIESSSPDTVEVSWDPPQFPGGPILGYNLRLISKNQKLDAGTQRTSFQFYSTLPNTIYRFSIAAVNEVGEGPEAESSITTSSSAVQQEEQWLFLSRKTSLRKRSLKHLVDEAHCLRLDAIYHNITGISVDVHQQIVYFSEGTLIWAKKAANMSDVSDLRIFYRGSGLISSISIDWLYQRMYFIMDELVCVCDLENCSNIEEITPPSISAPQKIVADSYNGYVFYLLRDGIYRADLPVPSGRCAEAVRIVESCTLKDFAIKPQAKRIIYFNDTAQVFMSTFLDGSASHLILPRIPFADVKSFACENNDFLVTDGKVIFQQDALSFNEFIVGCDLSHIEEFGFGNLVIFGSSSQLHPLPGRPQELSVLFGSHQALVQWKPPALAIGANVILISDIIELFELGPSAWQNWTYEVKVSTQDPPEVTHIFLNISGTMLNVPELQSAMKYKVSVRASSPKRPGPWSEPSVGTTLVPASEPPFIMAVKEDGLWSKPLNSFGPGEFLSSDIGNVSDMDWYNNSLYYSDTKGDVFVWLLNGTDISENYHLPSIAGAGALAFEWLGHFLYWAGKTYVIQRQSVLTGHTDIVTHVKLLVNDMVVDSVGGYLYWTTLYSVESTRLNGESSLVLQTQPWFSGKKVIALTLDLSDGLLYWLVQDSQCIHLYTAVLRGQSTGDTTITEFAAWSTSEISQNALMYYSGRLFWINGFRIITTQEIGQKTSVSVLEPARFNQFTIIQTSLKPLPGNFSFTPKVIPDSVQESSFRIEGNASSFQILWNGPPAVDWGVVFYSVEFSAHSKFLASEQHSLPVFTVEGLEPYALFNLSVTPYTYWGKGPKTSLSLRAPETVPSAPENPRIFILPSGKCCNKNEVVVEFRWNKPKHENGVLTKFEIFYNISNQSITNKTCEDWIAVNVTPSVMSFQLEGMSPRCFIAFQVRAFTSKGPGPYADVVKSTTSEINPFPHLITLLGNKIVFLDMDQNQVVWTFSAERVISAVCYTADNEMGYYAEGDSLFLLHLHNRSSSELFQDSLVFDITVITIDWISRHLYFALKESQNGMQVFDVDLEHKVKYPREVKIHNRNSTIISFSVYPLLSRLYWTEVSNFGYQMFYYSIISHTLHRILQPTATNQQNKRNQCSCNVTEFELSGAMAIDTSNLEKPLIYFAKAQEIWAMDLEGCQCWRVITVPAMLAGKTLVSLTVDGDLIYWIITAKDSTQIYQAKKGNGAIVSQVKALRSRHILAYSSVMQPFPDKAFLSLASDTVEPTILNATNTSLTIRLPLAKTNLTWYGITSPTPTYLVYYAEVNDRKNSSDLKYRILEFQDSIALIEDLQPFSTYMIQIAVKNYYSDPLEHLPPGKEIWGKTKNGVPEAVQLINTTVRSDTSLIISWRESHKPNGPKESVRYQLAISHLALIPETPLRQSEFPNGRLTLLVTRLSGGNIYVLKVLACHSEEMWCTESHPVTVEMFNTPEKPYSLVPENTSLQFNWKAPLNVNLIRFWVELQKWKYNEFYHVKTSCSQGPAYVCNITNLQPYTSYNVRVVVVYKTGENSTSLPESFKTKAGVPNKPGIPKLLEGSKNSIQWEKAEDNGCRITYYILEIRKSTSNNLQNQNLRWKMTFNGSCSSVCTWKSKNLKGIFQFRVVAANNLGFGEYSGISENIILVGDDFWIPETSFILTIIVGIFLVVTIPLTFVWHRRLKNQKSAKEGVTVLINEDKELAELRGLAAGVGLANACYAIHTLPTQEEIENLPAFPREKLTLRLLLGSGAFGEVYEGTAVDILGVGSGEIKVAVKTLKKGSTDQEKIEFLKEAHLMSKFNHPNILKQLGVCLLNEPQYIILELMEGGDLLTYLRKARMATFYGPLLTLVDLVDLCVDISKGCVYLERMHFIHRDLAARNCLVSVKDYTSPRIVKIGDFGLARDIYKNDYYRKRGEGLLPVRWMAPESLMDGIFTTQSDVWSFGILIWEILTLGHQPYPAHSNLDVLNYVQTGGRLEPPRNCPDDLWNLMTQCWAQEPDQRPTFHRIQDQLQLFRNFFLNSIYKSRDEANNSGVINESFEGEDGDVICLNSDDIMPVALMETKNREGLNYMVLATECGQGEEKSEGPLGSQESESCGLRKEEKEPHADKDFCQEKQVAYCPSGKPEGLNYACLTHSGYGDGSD

VEGFR2 = molecular target: T3, VEGFR2 (Homo sapiens, UniProt P35968)
T3 construct: purchased Eurofins DiscoverX KINOMEscan (scanTK)

MET(Y1235D) = molecular target: T4, MET(Y1235D) (Homo sapiens, UniProt P08581, Y1235D)
T4 construct: purchased Eurofins DiscoverX KINOMEscan (scanTK)
T4 sequence (P08581 25-1390 Y1235D): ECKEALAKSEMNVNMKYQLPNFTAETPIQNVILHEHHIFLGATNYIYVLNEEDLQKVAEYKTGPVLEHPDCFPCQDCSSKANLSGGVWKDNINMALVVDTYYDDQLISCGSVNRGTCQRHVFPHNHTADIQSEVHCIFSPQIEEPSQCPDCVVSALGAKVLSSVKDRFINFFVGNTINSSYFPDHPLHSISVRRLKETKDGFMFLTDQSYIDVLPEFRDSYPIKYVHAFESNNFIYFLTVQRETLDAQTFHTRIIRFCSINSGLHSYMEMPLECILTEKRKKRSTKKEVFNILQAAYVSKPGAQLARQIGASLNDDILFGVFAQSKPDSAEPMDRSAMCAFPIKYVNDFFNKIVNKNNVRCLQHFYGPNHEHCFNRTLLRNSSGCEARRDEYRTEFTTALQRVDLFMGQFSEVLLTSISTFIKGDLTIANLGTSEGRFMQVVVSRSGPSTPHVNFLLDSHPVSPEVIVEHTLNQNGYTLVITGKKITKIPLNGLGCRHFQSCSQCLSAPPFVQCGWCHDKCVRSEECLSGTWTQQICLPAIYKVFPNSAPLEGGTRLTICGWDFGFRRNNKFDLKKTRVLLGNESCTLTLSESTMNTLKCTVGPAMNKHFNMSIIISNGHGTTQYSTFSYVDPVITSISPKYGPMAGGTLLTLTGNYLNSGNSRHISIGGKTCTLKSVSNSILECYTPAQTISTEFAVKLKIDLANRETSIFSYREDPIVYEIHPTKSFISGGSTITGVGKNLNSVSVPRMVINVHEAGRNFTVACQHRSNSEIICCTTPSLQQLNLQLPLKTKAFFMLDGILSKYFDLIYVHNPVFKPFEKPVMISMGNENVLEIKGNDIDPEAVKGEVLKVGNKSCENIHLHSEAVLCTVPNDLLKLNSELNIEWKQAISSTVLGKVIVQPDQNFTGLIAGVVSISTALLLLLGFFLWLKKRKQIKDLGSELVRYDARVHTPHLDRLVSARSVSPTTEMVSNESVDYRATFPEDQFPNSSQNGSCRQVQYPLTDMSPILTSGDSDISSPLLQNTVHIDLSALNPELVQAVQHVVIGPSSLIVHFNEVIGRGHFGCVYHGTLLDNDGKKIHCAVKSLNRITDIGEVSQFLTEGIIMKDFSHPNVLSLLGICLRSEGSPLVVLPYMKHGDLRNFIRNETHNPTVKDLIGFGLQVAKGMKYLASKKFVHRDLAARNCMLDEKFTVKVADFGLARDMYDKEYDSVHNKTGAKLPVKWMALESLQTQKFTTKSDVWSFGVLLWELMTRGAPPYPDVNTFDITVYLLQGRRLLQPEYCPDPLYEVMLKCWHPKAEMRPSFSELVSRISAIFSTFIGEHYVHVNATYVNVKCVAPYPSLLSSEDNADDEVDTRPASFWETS

BMX = molecular target: T5, BMX (Homo sapiens, UniProt P51813)
T5 construct: purchased Eurofins DiscoverX KINOMEscan (scanTK)
T5 sequence (P51813 1-675): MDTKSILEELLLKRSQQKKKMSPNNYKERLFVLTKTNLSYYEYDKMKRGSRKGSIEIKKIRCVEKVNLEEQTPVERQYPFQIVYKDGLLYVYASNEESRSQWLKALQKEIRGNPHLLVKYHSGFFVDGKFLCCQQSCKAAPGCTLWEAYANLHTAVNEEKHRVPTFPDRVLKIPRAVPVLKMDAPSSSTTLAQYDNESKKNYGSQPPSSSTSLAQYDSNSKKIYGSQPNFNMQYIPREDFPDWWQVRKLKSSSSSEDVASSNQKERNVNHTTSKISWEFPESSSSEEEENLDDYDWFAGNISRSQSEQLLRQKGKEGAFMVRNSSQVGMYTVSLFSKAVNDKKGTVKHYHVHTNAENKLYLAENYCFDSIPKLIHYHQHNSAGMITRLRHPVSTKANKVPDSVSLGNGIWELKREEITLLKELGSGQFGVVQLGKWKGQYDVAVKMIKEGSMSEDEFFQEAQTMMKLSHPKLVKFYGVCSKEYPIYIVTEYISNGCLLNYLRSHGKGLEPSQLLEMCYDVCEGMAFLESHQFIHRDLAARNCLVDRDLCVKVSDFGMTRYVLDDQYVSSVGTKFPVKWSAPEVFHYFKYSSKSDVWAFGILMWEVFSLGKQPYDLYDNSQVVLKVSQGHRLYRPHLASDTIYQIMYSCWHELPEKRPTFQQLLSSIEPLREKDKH

FLT3-autoinhibited = molecular target: T6, FLT3-autoinhibited (Homo sapiens, UniProt P36888)
T6 construct: purchased Eurofins DiscoverX KINOMEscan (scanTK)
T6 sequence (P36888 27-993): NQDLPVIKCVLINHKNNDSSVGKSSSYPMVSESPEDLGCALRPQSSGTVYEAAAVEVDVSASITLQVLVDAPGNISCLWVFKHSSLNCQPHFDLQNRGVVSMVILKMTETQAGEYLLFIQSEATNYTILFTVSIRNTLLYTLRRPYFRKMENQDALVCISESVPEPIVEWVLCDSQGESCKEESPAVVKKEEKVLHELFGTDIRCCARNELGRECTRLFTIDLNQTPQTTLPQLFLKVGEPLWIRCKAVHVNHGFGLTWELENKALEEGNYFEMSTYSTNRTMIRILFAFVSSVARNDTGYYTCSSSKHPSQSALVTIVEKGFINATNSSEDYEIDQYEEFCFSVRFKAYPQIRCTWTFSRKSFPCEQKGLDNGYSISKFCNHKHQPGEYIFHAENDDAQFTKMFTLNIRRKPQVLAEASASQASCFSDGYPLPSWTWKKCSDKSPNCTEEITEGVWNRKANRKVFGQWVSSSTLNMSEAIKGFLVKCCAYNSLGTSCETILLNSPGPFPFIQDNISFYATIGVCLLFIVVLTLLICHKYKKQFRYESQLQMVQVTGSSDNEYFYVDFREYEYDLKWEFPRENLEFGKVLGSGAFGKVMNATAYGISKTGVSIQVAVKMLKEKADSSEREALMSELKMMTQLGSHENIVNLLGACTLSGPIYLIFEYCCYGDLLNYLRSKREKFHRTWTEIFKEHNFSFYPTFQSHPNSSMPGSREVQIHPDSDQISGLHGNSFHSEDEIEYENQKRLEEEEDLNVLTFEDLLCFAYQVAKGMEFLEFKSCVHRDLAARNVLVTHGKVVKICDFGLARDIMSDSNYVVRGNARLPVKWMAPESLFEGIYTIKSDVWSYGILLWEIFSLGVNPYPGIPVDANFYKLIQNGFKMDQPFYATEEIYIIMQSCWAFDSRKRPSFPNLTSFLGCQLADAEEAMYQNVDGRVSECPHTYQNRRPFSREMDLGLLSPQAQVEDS

MST1R = molecular target: T7, MST1R (Homo sapiens, UniProt Q04912)
T7 construct: purchased Eurofins DiscoverX KINOMEscan (scanTK)
T7 sequence (Q04912 25-1400): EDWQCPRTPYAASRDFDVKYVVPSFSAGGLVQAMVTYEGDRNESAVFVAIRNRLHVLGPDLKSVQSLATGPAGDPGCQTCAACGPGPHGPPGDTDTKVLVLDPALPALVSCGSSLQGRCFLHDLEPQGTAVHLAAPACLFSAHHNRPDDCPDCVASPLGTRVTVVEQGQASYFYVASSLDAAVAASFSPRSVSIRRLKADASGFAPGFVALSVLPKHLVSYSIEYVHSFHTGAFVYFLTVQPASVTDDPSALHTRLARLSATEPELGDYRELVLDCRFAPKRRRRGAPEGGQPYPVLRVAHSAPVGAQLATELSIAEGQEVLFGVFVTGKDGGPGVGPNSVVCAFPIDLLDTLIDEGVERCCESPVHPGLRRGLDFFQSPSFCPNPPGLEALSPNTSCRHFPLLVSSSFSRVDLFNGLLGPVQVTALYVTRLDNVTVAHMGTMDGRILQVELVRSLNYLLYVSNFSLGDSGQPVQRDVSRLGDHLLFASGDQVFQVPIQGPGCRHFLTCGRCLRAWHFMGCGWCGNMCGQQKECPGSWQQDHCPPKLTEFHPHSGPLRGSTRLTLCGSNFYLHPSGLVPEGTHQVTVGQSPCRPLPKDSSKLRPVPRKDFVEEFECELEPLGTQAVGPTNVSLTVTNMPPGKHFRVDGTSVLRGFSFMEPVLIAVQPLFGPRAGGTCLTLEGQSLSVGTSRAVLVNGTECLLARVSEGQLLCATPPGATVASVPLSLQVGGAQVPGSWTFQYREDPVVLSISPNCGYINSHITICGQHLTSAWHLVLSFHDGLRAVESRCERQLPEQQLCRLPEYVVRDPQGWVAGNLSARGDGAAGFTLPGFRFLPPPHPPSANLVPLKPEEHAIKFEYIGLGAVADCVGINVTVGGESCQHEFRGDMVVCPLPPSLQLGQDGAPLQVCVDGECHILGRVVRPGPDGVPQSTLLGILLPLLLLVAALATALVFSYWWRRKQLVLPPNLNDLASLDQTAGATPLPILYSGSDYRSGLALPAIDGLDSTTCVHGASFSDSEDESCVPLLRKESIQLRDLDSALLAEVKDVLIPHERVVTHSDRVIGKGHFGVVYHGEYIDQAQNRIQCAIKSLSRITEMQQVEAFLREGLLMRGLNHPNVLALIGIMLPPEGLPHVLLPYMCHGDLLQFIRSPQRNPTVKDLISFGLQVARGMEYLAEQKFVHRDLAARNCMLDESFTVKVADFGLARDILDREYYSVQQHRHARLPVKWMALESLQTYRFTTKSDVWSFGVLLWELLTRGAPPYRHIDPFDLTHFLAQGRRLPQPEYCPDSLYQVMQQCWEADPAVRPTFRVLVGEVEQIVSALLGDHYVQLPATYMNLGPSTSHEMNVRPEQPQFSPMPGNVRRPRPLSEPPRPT

## C=CC(=O)N1CCC[C@@H](n2nc(-c3ccc(Oc4ccccc4)cc3)c3c(N)ncnc32)C1 [Compound 1g, Ibrutinib, reference compound]
TEC; @1000nM, read-out: %Control
  remaining binding at 1 µM: 20%
TEC; read-out: %Control @1000nM
  remaining binding at 1 µM: 20%
ROS1; @1000nM, read-out: %Control
  remaining binding at 1 µM: 97%
ROS1; read-out: %Control @1000nM
  remaining binding at 1 µM: 97%
VEGFR2; @1000nM, read-out: %Control
  remaining binding at 1 µM: 71%
VEGFR2; read-out: %Control @1000nM
  remaining binding at 1 µM: 71%
MET(Y1235D); @1000nM, read-out: %Control
  remaining binding at 1 µM: 96%
MET(Y1235D); read-out: %Control @1000nM
  remaining binding at 1 µM: 96%

## Cc1cnc(S(C)(=O)=O)nc1N1CCCC(n2nc(-c3ccc(Oc4ccccc4)cc3)c3c(N)ncnc32)C1 (stereo not shown) [Compound 8a, 1-(1-(5-Methyl-2-(methylsulfonyl)pyrimidin-4-yl)piperidin-3-yl)-3-(4-phenoxyphenyl)-1H-pyrazolo[3,4-d]pyrimidin-4-amine]
TEC; @1000nM, read-out: %Control
  remaining binding at 1 µM: 27%
TEC; read-out: %Control @1000nM
  remaining binding at 1 µM: 27%
ROS1; @1000nM
  %Control difference versus reference Ib at 1 µM: -4%
ROS1; @1000nM, read-out: %Control
  remaining binding at 1 µM: 93%
ROS1; read-out: %Control @1000nM
  remaining binding at 1 µM: 93%
BMX; @1000nM
  difference in %Control versus compound Ib at 1 µM: -3%
BMX; @1000nM, read-out: %Control
  remaining binding at 1 µM: 38%
BMX; read-out: %Control @1000nM
  remaining binding at 1 µM: 38%
FLT3-autoinhibited; @1000nM
  difference in %Control vs compound Ib at 1 µM: -18%
FLT3-autoinhibited; @1000nM, read-out: %Control
  remaining binding at 1 µM: 79%
FLT3-autoinhibited; read-out: %Control @1000nM
  remaining binding at 1 µM: 79%
VEGFR2; @1000nM, read-out: %Control
  remaining binding at 1 µM: 90%
VEGFR2; read-out: %Control @1000nM
  remaining binding at 1 µM: 90%
MET(Y1235D); @1000nM, read-out: %Control
  remaining binding at 1 µM: 100%
MET(Y1235D); read-out: %Control @1000nM
  remaining binding at 1 µM: 100%
MST1R; @1000nM, read-out: %Control
  remaining binding at 1 µM: 100%
MST1R; read-out: %Control @1000nM
  remaining binding at 1 µM: 100%

## COC(=O)c1cnc(S(C)(=O)=O)nc1N1CCCC(n2nc(-c3ccc(Oc4ccccc4)cc3)c3c(N)ncnc32)C1 (stereo not shown) [Compound 8b, Methyl 4-(3-(4-Amino-3-(4-phenoxyphenyl)-1H-pyrazolo[3,4-d]pyrimidin-1-yl)piperidin-1-yl)-2-(methylsulfonyl)pyrimidine-5-carboxylate]
TEC; @1000nM, read-out: %Control
  remaining binding at 1 µM: 32%
TEC; read-out: %Control @1000nM
  remaining binding at 1 µM: 32%
ROS1; @1000nM
  %Control difference versus reference Ib at 1 µM: -11%
ROS1; @1000nM, read-out: %Control
  remaining binding at 1 µM: 86%
ROS1; read-out: %Control @1000nM
  remaining binding at 1 µM: 86%
BMX; @1000nM
  difference in %Control versus compound Ib at 1 µM: 12%
BMX; @1000nM, read-out: %Control
  remaining binding at 1 µM: 53%
BMX; read-out: %Control @1000nM
  remaining binding at 1 µM: 53%
FLT3-autoinhibited; @1000nM
  difference in %Control vs compound Ib at 1 µM: -7%
FLT3-autoinhibited; @1000nM, read-out: %Control
  remaining binding at 1 µM: 90%
FLT3-autoinhibited; read-out: %Control @1000nM
  remaining binding at 1 µM: 90%
VEGFR2; @1000nM, read-out: %Control
  remaining binding at 1 µM: 90%
VEGFR2; read-out: %Control @1000nM
  remaining binding at 1 µM: 90%
MET(Y1235D); @1000nM, read-out: %Control
  remaining binding at 1 µM: 94%
MET(Y1235D); read-out: %Control @1000nM
  remaining binding at 1 µM: 94%
MST1R; @1000nM, read-out: %Control
  remaining binding at 1 µM: 96%
MST1R; read-out: %Control @1000nM
  remaining binding at 1 µM: 96%

## CCOC(=O)c1cnc(S(C)(=O)=O)nc1N1CCC[C@@H](n2nc(-c3ccc(Oc4ccccc4)cc3)c3c(N)ncnc32)C1 [Compound 8c, Ethyl (R)-4-(3-(4-Amino-3-(4-phenoxyphenyl)-1H-pyrazolo[3,4-d]pyrimidin-1-yl)piperidin-1-yl)-2-(methylsulfonyl)pyrimidine-5-carboxylate]
TEC; @1000nM, read-out: %Control
  remaining binding at 1 µM: 53%
TEC; read-out: %Control @1000nM
  remaining binding at 1 µM: 53%
ROS1; @1000nM
  %Control difference versus reference Ib at 1 µM: 3%
ROS1; @1000nM, read-out: %Control
  remaining binding at 1 µM: 100%
ROS1; read-out: %Control @1000nM
  remaining binding at 1 µM: 100%
BMX; @1000nM
  difference in %Control versus compound Ib at 1 µM: 28%
BMX; @1000nM, read-out: %Control
  remaining binding at 1 µM: 69%
BMX; read-out: %Control @1000nM
  remaining binding at 1 µM: 69%
FLT3-autoinhibited; @1000nM
  difference in %Control vs compound Ib at 1 µM: 3%
FLT3-autoinhibited; @1000nM, read-out: %Control
  remaining binding at 1 µM: 100%
FLT3-autoinhibited; read-out: %Control @1000nM
  remaining binding at 1 µM: 100%
VEGFR2; @1000nM, read-out: %Control
  remaining binding at 1 µM: 94%
VEGFR2; read-out: %Control @1000nM
  remaining binding at 1 µM: 94%
MET(Y1235D); @1000nM, read-out: %Control
  remaining binding at 1 µM: 100%
MET(Y1235D); read-out: %Control @1000nM
  remaining binding at 1 µM: 100%
MST1R; @1000nM, read-out: %Control
  remaining binding at 1 µM: 98%
MST1R; read-out: %Control @1000nM
  remaining binding at 1 µM: 98%

## CNC(=O)c1cnc(S(C)(=O)=O)nc1N1CCCC(n2nc(-c3ccc(Oc4ccccc4)cc3)c3c(N)ncnc32)C1 (stereo not shown) [Compound 8d, 4-(3-(4-Amino-3-(4-phenoxyphenyl)-1H-pyrazolo[3,4-d]pyrimidin-1-yl)piperidin-1-yl)-N-methyl-2-(methylsulfonyl)pyrimidine-5-carboxamide]
TEC; @1000nM, read-out: %Control
  remaining binding at 1 µM: 40%
TEC; read-out: %Control @1000nM
  remaining binding at 1 µM: 40%
ROS1; @1000nM
  %Control difference versus reference Ib at 1 µM: 3%
ROS1; @1000nM, read-out: %Control
  remaining binding at 1 µM: 100%
ROS1; read-out: %Control @1000nM
  remaining binding at 1 µM: 100%
BMX; @1000nM
  difference in %Control versus compound Ib at 1 µM: 20%
BMX; @1000nM, read-out: %Control
  remaining binding at 1 µM: 61%
BMX; read-out: %Control @1000nM
  remaining binding at 1 µM: 61%
FLT3-autoinhibited; @1000nM
  difference in %Control vs compound Ib at 1 µM: 3%
FLT3-autoinhibited; @1000nM, read-out: %Control
  remaining binding at 1 µM: 100%
FLT3-autoinhibited; read-out: %Control @1000nM
  remaining binding at 1 µM: 100%
VEGFR2; @1000nM, read-out: %Control
  remaining binding at 1 µM: 88%
VEGFR2; read-out: %Control @1000nM
  remaining binding at 1 µM: 88%
MET(Y1235D); @1000nM, read-out: %Control
  remaining binding at 1 µM: 91%
MET(Y1235D); read-out: %Control @1000nM
  remaining binding at 1 µM: 91%
MST1R; @1000nM, read-out: %Control
  remaining binding at 1 µM: 100%
MST1R; read-out: %Control @1000nM
  remaining binding at 1 µM: 100%
